Data from PMC6444013, “Development of a fluorescence-based method for the rapid determination of Zika virus polymerase activity and the screening of antiviral drugs” (Scientific Reports, 2019).

Target: T1, ZIKV RdRp (ZIKV NS5 RdRp domain) (Zika virus, UniProt A0A0X1LH65)
T1 construct: RdRp domain residues 275-903 of NS5, cut from the genome polyprotein; E. coli BL21(DE3)-pRIL; 75 kDa
Assay: real-time SYTO […] fluorescence polymerization assay
Assay type: biochemical

T1 sequence (A0A0X1LH65 2795-3423): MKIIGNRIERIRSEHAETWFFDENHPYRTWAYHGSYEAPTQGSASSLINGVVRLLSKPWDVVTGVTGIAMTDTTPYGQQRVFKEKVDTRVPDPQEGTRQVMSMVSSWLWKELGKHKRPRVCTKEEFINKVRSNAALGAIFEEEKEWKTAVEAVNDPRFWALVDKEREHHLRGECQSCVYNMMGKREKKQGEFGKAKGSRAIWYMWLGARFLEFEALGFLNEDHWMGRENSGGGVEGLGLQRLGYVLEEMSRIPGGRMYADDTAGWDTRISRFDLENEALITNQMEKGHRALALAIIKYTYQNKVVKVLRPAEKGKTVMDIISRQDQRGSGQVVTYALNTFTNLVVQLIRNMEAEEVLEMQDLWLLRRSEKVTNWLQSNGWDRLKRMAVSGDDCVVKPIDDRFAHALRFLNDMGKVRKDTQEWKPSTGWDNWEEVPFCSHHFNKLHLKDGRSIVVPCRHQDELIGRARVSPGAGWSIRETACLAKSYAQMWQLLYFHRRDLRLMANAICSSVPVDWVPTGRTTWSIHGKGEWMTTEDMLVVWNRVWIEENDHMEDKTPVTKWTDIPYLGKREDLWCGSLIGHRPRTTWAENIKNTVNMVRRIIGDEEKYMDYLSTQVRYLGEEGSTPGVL

Row | SMILES | IC50
1 | Nc1ncnc2c1ncn2[C@@H]1O[C@H](COP(=O)(O)OP(=O)(O)OP(=O)(O)O)C[C@H]1O [cordycepin 5′-triphosphate] | 54 ± 7 µM
2 | NC(=O)c1ncn([C@@H]2O[C@H](CO[P@@](=O)(O)O[P@](=O)(O)OP(=O)(O)O)[C@@H](O)[C@H]2O)n1 [ribavirin 5′-triphosphate] | 946 ± 46 µM
